From US20130296417A1, “Theaflavin Compositions, Production, and Method to Control Physiological Disorders in Mammals” (JANGSU DEHE BIO-TECH CO., LTD., priority 2010, published 2013)

Test system: Madin-Darby canine kidney (MDCK) cells
Test: Cytotoxicity (CC50) in MDCK cells (Example II)

O=C(O[C@@H]1Cc2c(O)cc(O)cc2O[C@@H]1c1cc(O)c(O)c(O)c1)c1cc(O)c(O)c(O)c1 [EGCG, (−)-epigallocatechin-3-gallate]
CC50: >100 µg/mL
